Data on 3 molecules can be found in PMC6470557, “Synthesis of New GABAA Receptor Modulator with Pyrazolo[1,5-a]quinazoline (PQ) Scaffold” (International Journal of Molecular Sciences, 2019).

Molecules are shown by their SMILES.

What all share (format): cell-based
In assay [1] the target is T1, α1β2 GABAA receptor (α1 subunit) (Homo sapiens, UniProt P14867+P47870).
T1 construct: gene GABRA1; recombinant α1β2 receptor (devoid of the γ subunit) in Xenopus laevis oocytes; with GABAA receptor β2 subunit (GABRB2)
T1 sequence (P14867 28-456): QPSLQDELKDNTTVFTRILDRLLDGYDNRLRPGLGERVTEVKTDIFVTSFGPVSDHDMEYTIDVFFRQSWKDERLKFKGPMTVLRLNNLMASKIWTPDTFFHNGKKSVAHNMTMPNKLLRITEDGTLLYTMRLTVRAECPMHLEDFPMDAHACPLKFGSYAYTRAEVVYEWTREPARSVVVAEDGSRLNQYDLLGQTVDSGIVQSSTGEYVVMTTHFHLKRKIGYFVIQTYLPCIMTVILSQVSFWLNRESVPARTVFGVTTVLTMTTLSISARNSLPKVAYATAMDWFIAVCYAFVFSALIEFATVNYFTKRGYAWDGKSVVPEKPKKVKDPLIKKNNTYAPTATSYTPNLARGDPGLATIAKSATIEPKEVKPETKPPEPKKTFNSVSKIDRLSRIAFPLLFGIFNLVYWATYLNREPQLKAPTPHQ
T1 sequence (P47870 26-512): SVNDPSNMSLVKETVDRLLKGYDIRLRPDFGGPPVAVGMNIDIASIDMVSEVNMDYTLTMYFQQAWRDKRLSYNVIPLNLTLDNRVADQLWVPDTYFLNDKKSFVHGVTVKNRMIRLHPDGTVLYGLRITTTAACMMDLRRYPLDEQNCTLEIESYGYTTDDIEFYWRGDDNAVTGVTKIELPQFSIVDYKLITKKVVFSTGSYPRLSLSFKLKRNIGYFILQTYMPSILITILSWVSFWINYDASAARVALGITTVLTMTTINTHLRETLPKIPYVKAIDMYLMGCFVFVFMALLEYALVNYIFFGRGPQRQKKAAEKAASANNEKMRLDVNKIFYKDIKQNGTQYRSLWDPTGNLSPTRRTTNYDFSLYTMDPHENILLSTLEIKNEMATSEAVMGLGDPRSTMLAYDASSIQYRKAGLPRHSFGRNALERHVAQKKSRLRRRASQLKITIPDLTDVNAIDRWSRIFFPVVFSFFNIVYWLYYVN
Kind of assay: voltage clamp: block of CGS […] potentiation (data not shown); […] [3H]flumazenil displacement at […] in bovine membranes.

Assay [2] has as its target T1, α1β2 GABAA receptor (α1 subunit). Kind of assay: voltage clamp: reduction of CGS […] potentiation (data not shown); […] [3H]flumazenil displacement at […] in bovine membranes.
Assay [3] concerns the target T2, α1β2γ2L GABAA receptor (α1 subunit) (Homo sapiens, UniProt P14867+P18507).
T2 construct: gene GABRA1; recombinant α1β2γ2L receptor in Xenopus laevis oocytes; with GABAA receptor β2 (GABRB2) and γ2L (GABRG2) subunits
Kind of assay: two-electrode voltage clamp of GABA currents in oocytes; also […] [3H]flumazenil displacement at […] in bovine membranes. On the technique in general: Two-electrode voltage clamp holds a large cell at a set potential and records current.

T2 sequence (P18507 40-475, one chain of several): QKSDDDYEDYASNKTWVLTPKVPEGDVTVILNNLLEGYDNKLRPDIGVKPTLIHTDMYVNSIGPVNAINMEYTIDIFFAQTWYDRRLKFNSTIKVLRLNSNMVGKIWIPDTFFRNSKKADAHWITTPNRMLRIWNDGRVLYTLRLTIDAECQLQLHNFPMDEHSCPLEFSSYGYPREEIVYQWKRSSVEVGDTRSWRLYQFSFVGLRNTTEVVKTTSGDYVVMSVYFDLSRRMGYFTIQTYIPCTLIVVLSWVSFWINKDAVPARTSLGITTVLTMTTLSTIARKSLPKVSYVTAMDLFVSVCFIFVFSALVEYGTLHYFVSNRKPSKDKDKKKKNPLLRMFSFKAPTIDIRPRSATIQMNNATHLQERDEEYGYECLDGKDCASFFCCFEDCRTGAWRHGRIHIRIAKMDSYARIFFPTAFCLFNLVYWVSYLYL

With `COc1ccc2cnc3c(-c4cccs4)cnn3c2c1` [5d, 3-(Thien-2-yl)-8-methoxypyrazolo[1,5-a]quinazoline], the “voltage clamp: block of CGS 9895 potentiation (data not shown); >80% [3H]flumaze” value in assay [1] was “compounds 5d and 5e, which in the same test completely blocked or strongly reduced the potentiation of the GABAA receptor function”.

For `COc1ccc2cnc3c(-c4ccsc4)cnn3c2c1` [5e, 3-(Thien-3-yl)-8-methoxypyrazolo[1,5-a]quinazoline], the “voltage clamp: reduction of CGS 9895 potentiation (data not shown); >80% [3H]flu” value in assay [2] was “compounds 5d and 5e, which in the same test completely blocked or strongly reduced the potentiation of the GABAA receptor function”.

For `COc1ccc2cnc3c(C(=O)c4cccs4)cnn3c2c1` [6b, 3-(Thien-2-ylcarbonyl)-8-methoxypyrazolo[1,5-a]quinazoline], the response in assay [3] was half-maximal at 12 µM (EC50).
